Results published in paper PMC9395488, “First-in-human study of IM156, a novel potent biguanide oxidative phosphorylation (OXPHOS) inhibitor, in patients with advanced solid tumors” (Investigational New Drugs, 2022).

System: patients with advanced solid tumors
Assay: First-in-human phase 1 dose-escalation study: safety, DLTs, adverse events
Type: in vivo
Text: This multicenter first-in-human dose-escalation phase 1 study (clinicaltrials.gov identifier: NCT03272256) was designed to determine the MTD or RP2D and to evaluate the safety and tolerability of IM156. Secondary endpoints included PK characteristics, efficacy assessment (objective response rate [ORR], disease control rate [DCR], duration of response [DoR] and progression-free survival [PFS]). Furthermore, exploratory objectives included identification and profiling of IM156 metabolites, evaluations of exploratory PD markers of IM156, and evaluations of any potential relationship between putative biomarkers and safety/efficacy parameters of IM156. The study was conducted in accordance with Good Clinical Practice, the International Council for Harmonisation, and guidelines governing clinical study conduct and the ethical principles originating from the Declaration of Helsinki. The study was approved by each Institutional Review Board and patients provided written informed consent. Patients were enrolled at three sites in South Korea.
The initial dose and schedule of IM156 was chosen based on animal toxicology studies. […] IM156 was administered in the fasted state, with no food for at least 2 h before and 1 h after dosing.
Three DLT-evaluable patients were enrolled at each dose level. If there were no DLTs or other prohibitive adverse events (AEs), the Safety Committee was allowed to recommend escalation to the next highest dose level. If 1 DLT occurred in the first 3 DLT-evaluable patients, enrollment in that cohort was expanded to an additional 3 DLT-evaluable patients; if ≥ 2 DLTs were reported in a cohort, that dose was considered above the MTD.
Safety was assessed through vital signs, weight, laboratory assessments, physical examinations, electrocardiogram, and reporting of AEs as graded by the National Cancer Institute’s Common Terminology Criteria for Adverse Events v4.03 (NCI-CTCAE).
DLTs were defined as the following AEs if they were attributed as related to IM156: asymptomatic grade 4 neutropenia lasting for ≥ 5 days; febrile neutropenia, regardless of grade; grade 4 thrombocytopenia or grade 3 thrombocytopenia with bleeding; any grade ≥ 3 non-hematologic AE (except grade 3 hypertension and grade 3 nausea, vomiting or diarrhea for which proper measures for prevention and treatment were not implemented, and alopecia); blood lactate levels > 5 mmol; grade ≥ 2 AE prohibiting dosing of IM156 for ≥ 21 continuous days except for alterations in serum calcium or phosphorus levels. The safety analysis includes all patients who received at least one dose of study drug.
The safety population was defined as all patients who received at least one dose of IM156. The PK population was not defined in the protocol but included all patients with sufficient PK data to perform adequate PK modeling. The efficacy population included all patients who underwent at least one tumor imaging assessment while receiving IM156. Safety was assessed using descriptive statistics (e.g., DLTs, AEs, laboratory tests, physical examination, 12-lead ECG). The incidence and number of events were reported for the DLTs observed in Cycle 1 per dose group. […] Adverse events and TRAEs were standardized with the System Organ Class and the Preferred Term using the Medical Dictionary for Regulatory Activities v23.0. In addition, TEAEs, serious adverse events (SAEs), TEAE severity, and TEAEs leading to withdrawal were presented by dose group. Efficacy data were to be presented by Waterfall and Swim Lane plots. Time to event endpoints (e.g., DoR, PFS) were determined using Kaplan–Meier estimations with the median value for each endpoint summarized.

[1] = all dose level/grade cells not in own entries

NC(=Nc1ccc(OC(F)(F)F)cc1)N=C(N)N1CCCC1 [IM156]
18%: TRAE fatigue, percent of patients (all doses, N = 22)
46%: TRAE diarrhea, percent of patients (all doses, N = 22)
64%: patients in whom nausea and emesis required anti-emetic medications, percent (all doses, N = 22)
Nine: number of SAEs reported (all doses)
86%: patients with TRAEs, percent (all doses, N = 22)
8: TEAE Nausea, grade 1 (Total, all dose levels)
14 patients: patients in whom nausea and emesis required anti-emetic medications (all doses, N = 22)
82%: patients with gastrointestinal (GI) TRAEs, percent (all doses, N = 22)
32%: patients with a TEAE leading to dose interruption, percent (all doses, N = 22)
41%: TRAE emesis (vomiting), percent of patients (all doses, N = 22)
19 patients: patients with TRAEs (all doses, N = 22)
14%: Grade 3 nausea (TRAE), percent of patients (all doses, N = 22) | TRAEs grade 3 or higher, percent of patients (all doses, N = 22)
3 days: median number of days of interruption due to a TEAE (all doses)
not reached: maximum tolerated dose (MTD) (per protocol, 100 to 1,200 mg QOD or QD)
5: TEAE Nausea, grade 2 (Total, all dose levels) | TEAE Pyrexia, grade 1 (Total, all dose levels)
10: TEAE Vomiting, grade 1 (Total, all dose levels)
9%: TRAE abdominal pain, percent of patients (all doses, N = 22) | TRAE constipation, percent of patients (all doses, N = 22) | TRAE blood lactate (lactic acid) increased, percent of patients (all doses, N = 22, Grade 1)
800 mg: recommended phase 2 dose (RP2D) (oral, QD)
26: laboratory AEs considered not related to IM156 (of 28 laboratory AEs)
2: TEAE Fatigue, grade 1 (Total, all dose levels) | TEAE Hypoalbuminaemia, grade 2 (Total, all dose levels)
3: TEAE Diarrhoea, grade 2 (Total, all dose levels) | TEAE Nausea, grade 3 (Total, all dose levels)
100%: patients with at least one TEAE, percent (all doses, N = 22)
7 patients: patients with a TEAE leading to dose interruption (all doses, N = 22)
1: TEAE Dysesthesia, grade 1 (Total, all dose levels) | TEAE Gamma-glutamyltransferase increased, grade 2 (Total, all dose levels) | TEAE Gamma-glutamyltransferase increased, grade 3 (Total, all dose levels) | TEAE Gastritis, grade 1 (Total, all dose levels) | TEAE Gastrointestinal pain, grade 1 (Total, all dose levels) | TEAE Gastrointestinal pain, grade 2 (Total, all dose levels) | TEAE Headache, grade 1 (Total, all dose levels) | TEAE Headache, grade 2 (Total, all dose levels) | TEAE Hemoptysis, grade 2 (Total, all dose levels) | TEAE Hyperkalaemia, grade 3 (Total, all dose levels) | TEAE Hypocalcemia, grade 2 (Total, all dose levels) | TEAE Ileus, grade 2 (Total, all dose levels) | TEAE Ileus, grade 3 (Total, all dose levels) | TEAE Influenza like illness, grade 1 (Total, all dose levels) | TEAE Large intestinal obstruction, grade 2 (Total, all dose levels) | TEAE Lethargy, grade 2 (Total, all dose levels) | TEAE Neutrophil count decreased, grade 4 (Total, all dose levels) | TEAE Obstruction gastric, grade 3 (Total, all dose levels) | TEAE Oedema peripheral, grade 2 (Total, all dose levels) | TEAE Oropharyngeal pain, grade 1 (Total, all dose levels) | TEAE Pain, grade 2 (Total, all dose levels) | TEAE Peripheral sensory neuropathy, grade 1 (Total, all dose levels) | TEAE Platelet count decreased, grade 1 (Total, all dose levels) | TEAE Pleural effusion, grade 2 (Total, all dose levels) | TEAE Proctalgia, grade 2 (Total, all dose levels) | TEAE Pyrexia, grade 2 (Total, all dose levels) | TEAE Toothache, grade 1 (Total, all dose levels) | TEAE Vomiting, grade 2 (Total, all dose levels) | SAEs attributed to IM156 (grade 3 nausea at 1,200 mg QOD)
8 patients: patients with SAEs (all doses, N = 22)
0: TEAE Abdominal discomfort, dose level/grade cells without event [1] | TEAE Abdominal distension, dose level/grade cells without event [1] | TEAE Abdominal pain upper, dose level/grade cells without event [1] | TEAE Abdominal pain, dose level/grade cells without event [1] | TEAE Akathisia, dose level/grade cells without event [1] | TEAE Alanine aminotransferase increased, dose level/grade cells without event [1] | TEAE Ascites, dose level/grade cells without event [1] | TEAE Aspartate aminotransferase increased, dose level/grade cells without event [1] | TEAE Asthenia, dose level/grade cells without event [1] | TEAE Blood alkaline phosphatase increased, dose level/grade cells without event [1] | TEAE Blood creatinine increased, dose level/grade cells without event [1] | TEAE Blood lactic acid increased, dose level/grade cells without event [1] | TEAE Chest pain, dose level/grade cells without event [1] | TEAE Constipation, dose level/grade cells without event [1] | TEAE Cough, dose level/grade cells without event [1] | TEAE Decreased appetite, dose level/grade cells without event [1] | TEAE Diarrhoea, dose level/grade cells without event [1] | TEAE Dysesthesia, dose level/grade cells without event [1] | TEAE Fatigue, dose level/grade cells without event [1] | TEAE Gamma-glutamyltransferase increased, dose level/grade cells without event [1] | TEAE Gastritis, dose level/grade cells without event [1] | TEAE Gastrointestinal pain, dose level/grade cells without event [1] | TEAE Headache, dose level/grade cells without event [1] | TEAE Hemoptysis, dose level/grade cells without event [1] | TEAE Hyperkalaemia, dose level/grade cells without event [1] | TEAE Hypoalbuminaemia, dose level/grade cells without event [1] | TEAE Hypocalcemia, dose level/grade cells without event [1] | TEAE Ileus, dose level/grade cells without event [1] | TEAE Influenza like illness, dose level/grade cells without event [1] | TEAE Large intestinal obstruction, dose level/grade cells without event [1] | TEAE Lethargy, dose level/grade cells without event [1] | TEAE Nausea, dose level/grade cells without event [1] | TEAE Neutrophil count decreased, dose level/grade cells without event [1] | TEAE Obstruction gastric, dose level/grade cells without event [1] | TEAE Oedema peripheral, dose level/grade cells without event [1] | TEAE Oropharyngeal pain, dose level/grade cells without event [1] | TEAE Pain, dose level/grade cells without event [1] | TEAE Peripheral sensory neuropathy, dose level/grade cells without event [1] | TEAE Platelet count decreased, dose level/grade cells without event [1] | TEAE Pleural effusion, dose level/grade cells without event [1] | TEAE Proctalgia, dose level/grade cells without event [1] | TEAE Pyrexia, dose level/grade cells without event [1] | TEAE Toothache, dose level/grade cells without event [1] | TEAE Vomiting, dose level/grade cells without event [1] | Dose-limiting toxicity (dose level 1, 100 mg QOD oral, 3 patients) | Dose-limiting toxicity (dose level 2, 200 mg QOD oral, 3 patients) | Dose-limiting toxicity (dose level 3, 400 mg QOD oral, 3 patients) | Dose-limiting toxicity (dose level 4, 800 mg QOD oral, 3 patients) | Dose-limiting toxicity (dose level 5, 1,200 mg QOD oral, 3 patients) | Dose-limiting toxicity (dose level 6, 800 mg QD oral, 3 patients) | Dose-limiting toxicity (dose level 7, 1,200 mg QD oral, 4 patients)
22 patients: patients with at least one TEAE (all doses, N = 22)
2 to 11 days: days of interruption due to a TEAE, range (all doses)
68%: TRAE nausea, percent of patients (all doses, N = 22)
18 patients: patients with gastrointestinal (GI) TRAEs (all doses, N = 22)
146: total number of TEAEs reported (all doses, N = 22)
4: TEAE Fatigue, grade 2 (Total, all dose levels)
28: number of laboratory AEs (all doses)
93%: laboratory AEs considered not related to IM156, percent (of 28 laboratory AEs)
